Assay results: patent US20060069132A1, “Azolecarboxamide herbicides” (priority 2004, published 2006)

Assays:
rice [1] = test: Test C flooded paddy test; type: in vivo, Oryza sativa
Outline: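 Postemergence sprays applied to plants 2 to 18 cm tall (1- to 4-leaf stage); paddy species grown to 2-leaf stage under flooding. After 12 to 14 days in greenhouse, visual rating versus untreated controls on 0–100 scale (0 no effect, 100 complete control).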

velvetleaf = test: Test B pre-/postemergence herbicide test; type: in vivo, Abutilon theophrasti
Outline: (§1)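 Greenhouse pot assay with simultaneous preemergence (treated seed) and postemergence (2–18 cm seedlings) applications of surfactant-containing, non-phytotoxic solvent formulations. Response scored visually 13–15 days later on a 0–100 scale, 100 meaning complete control.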

large crabgrass = test: Test B pre-/postemergence herbicide test; type: in vivo, Digitaria sanguinalis
Outline: as §1

corn = test: Test B pre-/postemergence herbicide test; type: in vivo, Zea mays
Outline: as §1

rice [2] = test: Test B flooded paddy test; type: in vivo, Oryza sativa; conditions: 1000 g ai/ha, visual rating, scale 0 to 100 (0 no effect, 100 complete control), 13 to 15 days
Outline: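 Greenhouse test; postemergence application to plants at 1–4 leaves (2–18 cm); paddy species at 2 leaves; evaluated visually vs controls at 13–15 days; scale 0–100 (100 = complete control).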

barnyardgrass [3] = test: Test B flooded paddy test; type: in vivo, Echinochloa crus-galli; conditions: 1000 g ai/ha, visual rating, scale 0 to 100 (0 no effect, 100 complete control), 13 to 15 days
Outline: (§2)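 Visual ratings, 0 (no effect) to 100 (complete control), made versus controls after 13–15 d greenhouse. Paddy plants treated at 2-leaf stage; postemergence plants at 1- to 4-leaf stage, 2–18 cm tall.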

wild oat = test: Test B postemergence herbicide test; type: in vivo, Avena fatua; conditions: scale 0 (no effect) to 100 (complete control)
Outline: (§3)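 Plants grow to 1- to 4-leaf stage (2–18 cm) for postemergence spraying, or to 2-leaf stage for the paddy test. Formulated compound is applied. Greenhouse holding lasts 13–15 days. Response is scored visually relative to controls, 0 no effect to 100 complete control; a dash means no result.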

pigweed = test: Test B pre-/postemergence herbicide test; type: in vivo, Amaranthus retroflexus
Outline: as §1

cocklebur = test: Test B pre-/postemergence herbicide test; type: in vivo, Xanthium strumarium
Outline: (§4)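 Visual rating, 0 (no effect) to 100 (complete control), versus untreated controls after 13–15 d in greenhouse. Pre- and postemergence applications (postemergence plants 2–18 cm, 1–4 leaves); flooded paddy arm at 2-leaf stage. Compounds in non-phytotoxic solvent plus surfactant.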

Surinam grass = test: Test B pre-/postemergence herbicide test; type: in vivo, Urochloa decumbens
Outline: as §1

lambsquarters = test: Test B pre-/postemergence herbicide test; type: in vivo, Chenopodium album
Outline: as §1

wheat = test: Test B postemergence herbicide test; type: in vivo, Triticum aestivum; parameters: key to Wheat plant response rating: 0 = no effect, 100 = complete control; conditions: scale 0 (no effect) to 100 (complete control)
Outline: as §3

giant foxtail = test: Test B pre-/postemergence herbicide test; type: in vivo, Setaria faberi
Outline: as §1

rice [4] = test: Test B pre-/postemergence herbicide test; type: in vivo, Oryza sativa; conditions: preemergence, 125 g ai/ha; 0 to 100 scale, 0 is no effect, 100 is complete control
Outline: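 Species tested were Echinochloa crus-galli, Ipomoea coccinea, Xanthium strumarium and Oryza sativa, treated both before emergence and at the 1- to 4-leaf stage; rice and barnyardgrass were also tested under flooding at 2 leaves. Greenhouse incubation lasted 13–15 days before visual 0–100 scoring.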

barnyardgrass [5] = test: Test B pre-/postemergence herbicide test; type: in vivo, Echinochloa crus-galli
Outline: as §4

blackgrass = test: Test B postemergence herbicide test; type: in vivo, Alopecurus myosuroides; conditions: scale 0 (no effect) to 100 (complete control)
Outline: as §2

ducksalad [6] = test: Test B flooded paddy test; type: in vivo, Heteranthera limosa; conditions: 1000 g ai/ha, visual rating, scale 0 to 100 (0 no effect, 100 complete control), 13 to 15 days
Outline: as §2

morningglory = test: Test B pre-/postemergence herbicide test; type: in vivo, Ipomoea coccinea
Outline: as §4

barnyardgrass [7] = test: Test C flooded paddy test; type: in vivo, Echinochloa crus-galli
Outline: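 Visual rating, 0 (no effect) to 100 (complete control), vs. controls at 12–14 d in greenhouse. Postemergence: 1–4-leaf plants, 2–18 cm. Paddy: flooded, barnyardgrass at 2-leaf stage.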

ducksalad [8] = test: Test C flooded paddy test; type: in vivo, Heteranthera limosa
[9] = test system: small flower umbrella sedge; test: Test B flooded paddy test; type: in vivo, Cyperus difformis; conditions: 1000 g ai/ha, visual rating, scale 0 to 100 (0 no effect, 100 complete control), 13 to 15 days
Outline: as §2

[10] = test system: smallflower umbrella sedge; test: Test C flooded paddy test; type: in vivo, Cyperus difformis
[11] = 62 g ai/ha, scale 0 to 100 (0 no effect, 100 complete control)
[12] = 125 g ai/ha, scale of 0 to 100, 0 is no effect, 100 is complete control
[13] = 250 g ai/ha, scale of 0 to 100, 0 is no effect, 100 is complete control
[14] = 500 g ai/ha, visual rating after 12 to 14 days, scale 0 to 100 (0 no effect, 100 complete control)
[15] = Postemergence, 500 g ai/ha, visual rating after 13 to 15 days, scale 0 (no effect) to 100 (complete control)
[16] = postemergence, 125 g ai/ha, visual rating, scale 0 (no effect) to 100 (complete control)
[17] = preemergence, 125 g ai/ha, 0 to 100 scale, 0 is no effect, 100 is complete control
[18] = Preemergence, 500 g ai/ha, scale 0 to 100
[19] = Postemergence, 500 g ai/ha, visual rating after 13 to 15 days
[20] = postemergence, 125 g ai/ha, visual rating

CCOC(=O)c1cc(NC(=O)c2cc(C(C)(C)C)nn2CC)c(F)cc1OC [Compound 76]
Rice plant response rating (rice [1]; [11]): 75
Rice plant response rating (rice [1]; [12]): 80
Rice plant response rating (rice [1]; [13]): 85
Plant response rating, Rice (rice [1]; [14]): 90
Plant response rating, Velvetleaf (velvetleaf; [15]): 40
Velvetleaf plant response rating (velvetleaf; [16]): 40
Plant response rating, Velvetleaf (velvetleaf; [17]): 30
Plant response rating, Crabgrass, Large (large crabgrass; [15]): 20
Crabgrass, Large plant response rating (large crabgrass; [18]): 90
Crabgrass, Large plant response rating (large crabgrass; [16]): 10
Plant response rating, Crabgrass, Large (large crabgrass; [17]): 80
Plant response rating, Corn (corn; [15]): 30
Corn plant response rating (corn; [18]): 50
Corn plant response rating (corn; [16]): 10
Plant response rating, Corn (corn; [17]): 30
Rice plant response rating (rice [2]): 60
Barnyardgrass plant response rating (barnyardgrass [3]): 70
Plant response rating, Oat, Wild (wild oat; [19]): 40
Oat, Wild plant response rating (wild oat; [20]): 30
Plant response rating, Pigweed (pigweed; [15]): 100
Pigweed plant response rating (pigweed; [16]): 100
Plant response rating, Pigweed (pigweed; [17]): 100
Plant response rating, Cocklebur (cocklebur; [15]): 90
Cocklebur plant response rating (cocklebur; [18]): 40
Cocklebur plant response rating (cocklebur; [16]): 40
Plant response rating, Surinam Grass (Surinam grass; [15]): 20
Surinam Grass plant response rating (Surinam grass; [16]): 20
Plant response rating, Surinam Grass (Surinam grass; [17]): 70
Plant response rating, Lambsquarters (lambsquarters; [15]): 60
Lambsquarters plant response rating (lambsquarters; [16]): 30
Plant response rating, Lambsquarters (lambsquarters; [17]): 50
Plant response rating, Wheat (wheat; [19]): 30
Wheat plant response rating (wheat; [20]): 20
Plant response rating, Foxtail, Giant (giant foxtail; [15]): 40
Foxtail, Giant plant response rating (giant foxtail; [18]): 100
Foxtail, Giant plant response rating (giant foxtail; [16]): 20
Plant response rating, Foxtail, Giant (giant foxtail; [17]): 90
Plant response rating, Rice (rice [4]): 50
Plant response rating, Barnyardgrass (barnyardgrass [5]; [15]): 20
Barnyardgrass plant response rating (barnyardgrass [5]; [18]): 100
Barnyardgrass plant response rating (barnyardgrass [5]; [16]): 10
Plant response rating, Barnyardgrass (barnyardgrass [5]; [17]): 80
Plant response rating, Blackgrass (blackgrass; [19]): 50
Blackgrass plant response rating (blackgrass; [20]): 10
Ducksalad plant response rating (ducksalad [6]): 100
Plant response rating, Morningglory (morningglory; [15]): 10
Morningglory plant response rating (morningglory; [16]): 10
Plant response rating, Morningglory (morningglory; [17]): 10
Barnyardgrass plant response rating (barnyardgrass [7]; [11]): 50
Barnyardgrass plant response rating (barnyardgrass [7]; [12]): 70
Barnyardgrass plant response rating (barnyardgrass [7]; [13]): 80
Plant response rating, Barnyardgrass (barnyardgrass [7]; [14]): 90
Ducksalad plant response rating (ducksalad [8]; [11]): 45
Ducksalad plant response rating (ducksalad [8]; [12]): 50
Ducksalad plant response rating (ducksalad [8]; [13]): 75
Plant response rating, Ducksalad (ducksalad [8]; [14]): 80
Sedge, Umbrella plant response rating [9]: 60
Sedge, Umbrella plant response rating [10, 11]: 80
Sedge, Umbrella plant response rating [10, 12]: 85
Sedge, Umbrella plant response rating [10, 13]: 85
Plant response rating, Sedge, Umbrella [10, 14]: 90
